Assay results: patent US20170311603A1 (priority 2014, published 2017)

Legend:
[1] = system: B. cinerea B0510; assay: Mycelial growth of B. cinerea on supplemented PDA medium (Example 2); type: cell-based, Botrytis cinerea; settings: after 8 days, versus control (100%)
[2] = system: N. parvum isolate Bourgogne S-116; assay: Mycelial growth of N. parvum on supplemented PDA medium (Example 1); type: cell-based, Neofusicoccum parvum; settings: after 4 days, versus control (100%)
[3] = system: N. parvum isolate Bourgogne S-116; design: species or system V. vinifera L. cv. Chardonnay; settings: in vivo
[4] = system: Calli of V. vinifera cv. Chardonnay; assay: Phytotoxicity on grapevine cell clusters (calli) (Example 4); type: cell-based, V. vinifera L. cv. Chardonnay; settings: for appearance and color of the calli: MPM1 medium supplemented with 5 or 10 mM
Description: Calli (or undifferentiated cell clusters) of V. vinifera cv. Chardonnay are obtained from anthers as described in Mauro et al. (1986) and in Bertsch et al. (2005).
All the calli are inoculated on fresh solid MPM1 medium (Perrin et al. 2004) every 3 weeks and incubated at 25±0.5° C. in the dark with a relative humidity of 70±10%.
This experiment was repeated three times. For each condition, 15 white-yellow calli, with a diameter of 10±2 mm, were used.
Calli growth in each condition tested is evaluated by weighing each day for 5 days. Duncan's statistical test (with p≦0.05) was applied to the means and standard deviations of the results thus obtained. In addition to weighing, we visually evaluate the appearance and color of the calli according to their culture medium for 2 months.

| Compound | inhibition of the growth of the fungus on the culture medium [1] | inhibition of the growth of the fungus on the culture medium [2] | reduction in the surface area of the necrotic lesions [3] [%] | appearance and color of the calli [4] | growth of the calli (weighing) ([4]; supplemented MPM1 medium, 5 days of culture) | inhibition of the development of necrosis on the inoculated internodes [3] |
| --- | --- | --- | --- | --- | --- | --- |
| [O-2].[O-2].[O-2].[Sb+3].[Sb+3] [antimony oxide] | do not significantly inhibit the growth of the fungus | do not significantly inhibit the growth of the fungus | – | – | – | – |
| O=C([O-])CC(O)(CC(=O)[O-])C(=O)[O-].[Bi+3] [bismuth citrate] | do not significantly inhibit the growth of the fungus | do not significantly inhibit the growth of the fungus | – | – | – | – |
| [Bi+3].[Bi+3].[O-2].[O-2].[O-2] [bismuth oxide] | do not significantly inhibit the growth of the fungus | do not significantly inhibit the growth of the fungus | 5 | no change | – | – |
| O=C1[O][Bi]([OH])[O]c2ccccc21 [bismuth subsalicylate] | – | – | – | light grayish coloring at the periphery of the calli but no necrosis | no impact in terms of growth, multiplication or necrotic appearance | – |
| O=C(O)c1ccccc1O [salicylic acid] | – | – | – | light grayish coloring at the periphery of the calli but no necrosis | – | does not significantly inhibit the development of necrosis |
